Results on 15 compounds are retold here after ChEMBL document CHEMBL3871274 (Eur J Med Chem, 2016).

A value given as a limit tells only on which side of the number the result lay.

Experiment [1] in a line: Growth inhibition of human HCT116 cells after 96 hrs by MTS assay. In kind it is functional. The conditions noted are these: HCT-116, 96 h. In general terms: Formazan colour is commonly taken as a measure of viable cells.
In experiment [2] the target is T1, Aurora kinase B (Homo sapiens, UniProt Q96GD4).
For experiment [3], the target named is Aurora kinase C (Homo sapiens, UniProt Q9UQB9). As to the kind of experiment: Inhibition of human recombinant full-length N-terminal GST-tagged Aurora C (1 to 275 end residues) expressed in baculovirus expression system using GLRRASLG-NH2 as substrate after 20 mins in presence of [gamma-33P]-ATP by liquid scintillation counting.
The target in experiment [4] is Cyclin-dependent kinase 1 (Homo sapiens) (UniProt P06493). As to the kind of experiment: Inhibition of CDK1 (unknown origin) at 1 uM.
The target of experiment [5] is Dual specificity protein kinase TTK (Homo sapiens) (UniProt P33981). The experiment is described as follows: Inhibition of human recombinant full-length GST-tagged TTK expressed in baculovirus expression system at 1 uM.
In experiment [6] the target is High affinity nerve growth factor receptor (Homo sapiens) (UniProt P04629). As to the kind of experiment: Inhibition of human recombinant His-tagged NTRK1 cytoplasmic domain (441 to 796 residues) expressed in baculovirus expression system at 1 uM.
In experiment [7] the target is Rho-associated protein kinase 2 (Homo sapiens) (UniProt O75116). The experiment is described as follows: Inhibition of human recombinant N-terminal GST-tagged ROCK2 catalytic domain (1 to 552 residues) expressed in baculovirus expression system at 1 uM.
In experiment [8] the target is Cyclin-dependent kinase 2 (Homo sapiens) (UniProt P24941). As to the kind of experiment: Inhibition of CDK2 (unknown origin) at 1 uM.
The target of experiment [9] is Phosphatidylinositol 4-phosphate 3-kinase C2 domain-containing subunit alpha (Homo sapiens) (UniProt O00443). As to the kind of experiment: Inhibition of human recombinant N-terminal GST-tagged PIK3C2A catalytic domain expressed in baculovirus expression system at 1 uM.
In experiment [10] the target is Vascular endothelial growth factor receptor 2 (Homo sapiens, UniProt P35968). The experiment is described as follows: Inhibition of human recombinant His-tagged KDR cytoplasmic domain (789 to 1356 residues) expressed in baculovirus expression system at 1 uM.
The target in experiment [11] is Platelet-derived growth factor receptor alpha (Homo sapiens) (UniProt P16234). As to the kind of experiment: Inhibition of human recombinant GST-tagged PDGFRalpha cytoplasmic domain (550 to 1089 residues) expressed in baculovirus expression system at 1 uM.
Experiment [12] deals with T1, Aurora kinase B. The experiment is described as follows: Inhibition of human recombinant full-length His-tagged Aurora B expressed in baculovirus expression system at 1 uM.
Experiment [13] deals with Mast/stem cell growth factor receptor Kit (Homo sapiens) (UniProt P10721). As to the kind of experiment: Inhibition of human recombinant His-tagged KIT cytoplasmic domain (544 to 976 residues) expressed in baculovirus expression system at 1 uM.
Experiment [14] addresses Phosphatidylinositol 4-phosphate 3-kinase C2 domain-containing subunit beta (Homo sapiens) (UniProt O00750). As to the kind of experiment: Inhibition of human recombinant N-terminal GST-tagged PIK3C2B (155 to 1383 residues) catalytic domain expressed in baculovirus expression system at 1 uM.
In experiment [15] the target is Receptor-type tyrosine-protein kinase FLT3 (Homo sapiens) (UniProt P36888). As to the kind of experiment: Inhibition of human recombinant His-tagged FLT3 cytoplasmic domain (564 to 958 residues) expressed in baculovirus expression system at 1 uM.
In experiment [16] the target is Aurora kinase C (Homo sapiens) (UniProt Q9UQB9). The experiment is described as follows: Inhibition of human recombinant full-length GST-tagged Aurora C expressed in baculovirus expression system at 1 uM.
Experiment [17] has as its target Vascular endothelial growth factor receptor 1 (Homo sapiens, UniProt P17948). The experiment is described as follows: Inhibition of human recombinant GST-tagged FLT1 cytoplasmic domain (781 to 1338 residues) expressed in baculovirus expression system at 1 uM.
Experiment [18] deals with Angiopoietin-1 receptor (Homo sapiens) (UniProt Q02763). As to the kind of experiment: Inhibition of human recombinant GST-tagged TEK cytoplasmic domain (817 to 1101 residues) expressed in baculovirus expression system at 1 uM.
The target in experiment [19] is Serine/threonine-protein kinase Chk1 (Homo sapiens) (UniProt O14757). The experiment is described as follows: Inhibition of human recombinant full-length His-tagged CHK1 expressed in baculovirus expression system at 1 uM.
Experiment [20] deals with Tyrosine-protein kinase JAK1 (Homo sapiens) (UniProt P23458). As to the kind of experiment: Inhibition of human recombinant GST-tagged JAK1 cytoplasmic domain (866 to 1154 residues) expressed in baculovirus expression system at 1 uM.
The target of experiment [21] is Platelet-derived growth factor receptor beta (Homo sapiens) (UniProt P09619). The experiment is described as follows: Inhibition of human recombinant His-tagged PDGFRbeta cytoplasmic domain (558 to 1106 residues) expressed in baculovirus expression system at 1 uM.
Experiment [22] concerns the target Tyrosine-protein kinase ABL1 (Homo sapiens) (UniProt P00519). The experiment is described as follows: Inhibition of human recombinant full-length His-tagged ABL1 cytoplasmic domain expressed in baculovirus expression system at 1 uM.
Experiment [23] addresses Vascular endothelial growth factor receptor 3 (Homo sapiens, UniProt P35916). The experiment is described as follows: Inhibition of human recombinant GST-tagged FLT4 cytoplasmic domain (800 to 1297 residues) expressed in baculovirus expression system at 1 uM.
The target in experiment [24] is Serine/threonine-protein kinase Chk2 (Homo sapiens) (UniProt O96017). The experiment is described as follows: Inhibition of human recombinant full-length His-tagged CHK2 expressed in baculovirus expression system at 1 uM.
Experiment [25] concerns the target Rho-associated protein kinase 1 (Homo sapiens) (UniProt Q13464). As to the kind of experiment: Inhibition of human recombinant GST-tagged ROCK1 catalytic domain (1 to 535 residues) expressed in baculovirus expression system at 1 uM.
The target in experiment [26] is Proto-oncogene tyrosine-protein kinase receptor Ret (Homo sapiens) (UniProt P07949). As to the kind of experiment: Inhibition of human recombinant GST-tagged RET cytoplasmic domain (658 to 1114 residues) expressed in baculovirus expression system at 1 uM.

T1 sequence (Q96GD4 whole entry): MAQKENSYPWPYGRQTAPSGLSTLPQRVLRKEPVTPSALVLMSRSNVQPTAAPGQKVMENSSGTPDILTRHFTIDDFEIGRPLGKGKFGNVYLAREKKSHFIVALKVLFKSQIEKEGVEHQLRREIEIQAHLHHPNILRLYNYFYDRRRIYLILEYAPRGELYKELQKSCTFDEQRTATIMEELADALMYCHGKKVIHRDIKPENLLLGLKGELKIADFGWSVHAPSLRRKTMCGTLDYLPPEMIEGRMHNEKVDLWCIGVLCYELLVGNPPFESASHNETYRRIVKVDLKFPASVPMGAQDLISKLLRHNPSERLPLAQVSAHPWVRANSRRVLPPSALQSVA
Sequence of Platelet-derived growth factor receptor beta (Homo sapiens) (P09619 whole entry, the tested form may be a part): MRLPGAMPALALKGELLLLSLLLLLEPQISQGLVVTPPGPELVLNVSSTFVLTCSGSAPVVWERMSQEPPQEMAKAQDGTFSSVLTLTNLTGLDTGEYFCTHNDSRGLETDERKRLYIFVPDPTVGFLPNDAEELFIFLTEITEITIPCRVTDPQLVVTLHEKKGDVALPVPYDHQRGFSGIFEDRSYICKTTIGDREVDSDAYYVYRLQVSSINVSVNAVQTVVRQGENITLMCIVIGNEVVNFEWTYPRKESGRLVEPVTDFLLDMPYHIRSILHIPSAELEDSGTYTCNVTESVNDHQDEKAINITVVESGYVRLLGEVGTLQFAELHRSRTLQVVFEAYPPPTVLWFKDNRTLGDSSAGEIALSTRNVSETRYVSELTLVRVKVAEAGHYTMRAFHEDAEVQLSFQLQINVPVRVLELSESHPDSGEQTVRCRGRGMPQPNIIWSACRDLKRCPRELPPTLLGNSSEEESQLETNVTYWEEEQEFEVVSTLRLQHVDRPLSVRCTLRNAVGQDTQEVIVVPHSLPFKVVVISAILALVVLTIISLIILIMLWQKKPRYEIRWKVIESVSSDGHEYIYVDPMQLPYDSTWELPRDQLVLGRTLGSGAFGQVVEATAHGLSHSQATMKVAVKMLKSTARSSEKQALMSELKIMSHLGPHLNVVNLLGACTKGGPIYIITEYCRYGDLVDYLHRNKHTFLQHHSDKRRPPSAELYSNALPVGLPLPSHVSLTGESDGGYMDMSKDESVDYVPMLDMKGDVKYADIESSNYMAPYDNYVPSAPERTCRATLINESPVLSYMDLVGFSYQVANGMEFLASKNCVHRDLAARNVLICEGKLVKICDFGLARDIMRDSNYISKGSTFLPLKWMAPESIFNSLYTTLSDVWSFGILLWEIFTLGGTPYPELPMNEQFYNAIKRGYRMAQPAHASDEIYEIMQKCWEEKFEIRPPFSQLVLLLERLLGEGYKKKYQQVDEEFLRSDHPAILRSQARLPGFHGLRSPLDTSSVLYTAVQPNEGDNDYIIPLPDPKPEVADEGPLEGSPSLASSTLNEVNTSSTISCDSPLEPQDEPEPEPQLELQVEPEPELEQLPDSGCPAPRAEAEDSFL
Sequence of Phosphatidylinositol 4-phosphate 3-kinase C2 domain-containing subunit beta (Homo sapiens) (O00750 whole entry, the tested form may be a part): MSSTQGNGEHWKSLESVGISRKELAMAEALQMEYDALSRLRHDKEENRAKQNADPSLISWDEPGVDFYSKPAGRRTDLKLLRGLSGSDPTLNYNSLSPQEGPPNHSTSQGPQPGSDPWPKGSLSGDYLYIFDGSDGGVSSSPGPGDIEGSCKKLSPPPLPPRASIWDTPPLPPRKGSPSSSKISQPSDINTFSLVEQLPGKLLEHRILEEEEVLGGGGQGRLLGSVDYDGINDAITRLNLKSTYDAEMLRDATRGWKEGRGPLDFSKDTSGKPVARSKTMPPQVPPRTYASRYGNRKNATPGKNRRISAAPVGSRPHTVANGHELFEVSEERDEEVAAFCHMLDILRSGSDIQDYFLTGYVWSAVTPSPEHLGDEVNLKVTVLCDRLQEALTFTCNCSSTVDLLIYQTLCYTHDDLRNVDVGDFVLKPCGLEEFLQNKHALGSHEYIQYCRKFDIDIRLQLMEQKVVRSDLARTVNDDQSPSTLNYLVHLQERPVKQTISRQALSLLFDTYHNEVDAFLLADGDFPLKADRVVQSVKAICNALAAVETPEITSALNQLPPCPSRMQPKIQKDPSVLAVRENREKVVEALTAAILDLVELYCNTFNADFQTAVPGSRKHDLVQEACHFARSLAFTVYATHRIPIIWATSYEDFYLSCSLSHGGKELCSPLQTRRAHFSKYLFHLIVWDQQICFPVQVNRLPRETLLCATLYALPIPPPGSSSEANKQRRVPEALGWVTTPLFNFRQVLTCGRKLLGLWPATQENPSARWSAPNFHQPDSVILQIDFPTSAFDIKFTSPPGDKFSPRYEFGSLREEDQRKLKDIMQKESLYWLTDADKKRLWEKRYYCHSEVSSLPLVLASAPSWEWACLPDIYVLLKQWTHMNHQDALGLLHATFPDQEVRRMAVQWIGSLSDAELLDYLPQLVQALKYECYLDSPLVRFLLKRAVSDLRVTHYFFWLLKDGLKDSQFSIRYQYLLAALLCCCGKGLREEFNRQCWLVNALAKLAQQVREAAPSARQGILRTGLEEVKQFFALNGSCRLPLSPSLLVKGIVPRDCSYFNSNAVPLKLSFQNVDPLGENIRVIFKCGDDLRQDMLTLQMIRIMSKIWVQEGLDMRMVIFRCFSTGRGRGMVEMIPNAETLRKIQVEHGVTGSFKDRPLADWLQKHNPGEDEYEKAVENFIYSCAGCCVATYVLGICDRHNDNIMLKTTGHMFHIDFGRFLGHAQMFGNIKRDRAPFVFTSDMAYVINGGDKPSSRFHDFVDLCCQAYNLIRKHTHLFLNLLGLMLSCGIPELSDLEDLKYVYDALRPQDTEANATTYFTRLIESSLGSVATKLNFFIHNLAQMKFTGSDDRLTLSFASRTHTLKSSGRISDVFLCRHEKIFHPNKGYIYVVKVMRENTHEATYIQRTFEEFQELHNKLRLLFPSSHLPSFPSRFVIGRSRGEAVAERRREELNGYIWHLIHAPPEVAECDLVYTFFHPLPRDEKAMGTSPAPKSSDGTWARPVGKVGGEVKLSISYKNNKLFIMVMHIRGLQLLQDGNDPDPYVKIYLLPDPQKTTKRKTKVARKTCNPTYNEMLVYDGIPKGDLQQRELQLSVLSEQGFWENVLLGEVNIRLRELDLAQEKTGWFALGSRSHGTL
Sequence of Vascular endothelial growth factor receptor 1 (P17948 whole entry, the tested form may be a part): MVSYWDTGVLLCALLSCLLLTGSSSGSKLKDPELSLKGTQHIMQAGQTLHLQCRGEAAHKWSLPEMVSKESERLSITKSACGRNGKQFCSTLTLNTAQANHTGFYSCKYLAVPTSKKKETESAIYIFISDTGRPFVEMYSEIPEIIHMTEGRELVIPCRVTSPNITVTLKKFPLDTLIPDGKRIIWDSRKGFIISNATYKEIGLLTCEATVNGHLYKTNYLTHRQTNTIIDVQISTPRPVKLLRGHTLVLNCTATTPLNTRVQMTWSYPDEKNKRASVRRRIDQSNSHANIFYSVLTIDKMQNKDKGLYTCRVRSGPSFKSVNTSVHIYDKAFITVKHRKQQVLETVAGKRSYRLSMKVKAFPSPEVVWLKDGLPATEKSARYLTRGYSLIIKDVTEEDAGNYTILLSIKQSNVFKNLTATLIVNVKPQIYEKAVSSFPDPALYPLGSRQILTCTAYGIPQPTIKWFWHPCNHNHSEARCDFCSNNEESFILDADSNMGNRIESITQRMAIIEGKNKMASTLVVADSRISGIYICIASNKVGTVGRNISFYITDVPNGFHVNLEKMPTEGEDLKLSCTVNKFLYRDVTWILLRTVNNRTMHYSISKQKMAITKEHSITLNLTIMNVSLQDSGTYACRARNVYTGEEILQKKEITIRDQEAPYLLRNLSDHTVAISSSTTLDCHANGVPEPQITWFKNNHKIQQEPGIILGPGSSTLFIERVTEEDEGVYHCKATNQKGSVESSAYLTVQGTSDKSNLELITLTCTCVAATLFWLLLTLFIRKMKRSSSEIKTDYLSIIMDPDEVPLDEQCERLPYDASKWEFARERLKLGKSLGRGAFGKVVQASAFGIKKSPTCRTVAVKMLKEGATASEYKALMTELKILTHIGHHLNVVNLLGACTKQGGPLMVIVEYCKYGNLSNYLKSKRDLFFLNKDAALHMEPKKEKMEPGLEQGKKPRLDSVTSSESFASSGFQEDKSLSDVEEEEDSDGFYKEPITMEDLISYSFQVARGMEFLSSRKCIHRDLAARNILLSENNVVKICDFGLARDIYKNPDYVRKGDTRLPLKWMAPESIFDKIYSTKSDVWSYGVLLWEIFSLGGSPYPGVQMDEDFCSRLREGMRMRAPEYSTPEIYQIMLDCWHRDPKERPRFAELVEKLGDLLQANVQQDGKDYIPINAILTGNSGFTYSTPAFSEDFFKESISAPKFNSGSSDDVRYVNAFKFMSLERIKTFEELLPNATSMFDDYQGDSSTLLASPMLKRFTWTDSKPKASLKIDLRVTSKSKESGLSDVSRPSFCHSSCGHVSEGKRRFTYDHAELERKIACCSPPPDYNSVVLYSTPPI
Sequence of Serine/threonine-protein kinase Chk1 (Homo sapiens) (O14757 whole entry, the tested form may be a part): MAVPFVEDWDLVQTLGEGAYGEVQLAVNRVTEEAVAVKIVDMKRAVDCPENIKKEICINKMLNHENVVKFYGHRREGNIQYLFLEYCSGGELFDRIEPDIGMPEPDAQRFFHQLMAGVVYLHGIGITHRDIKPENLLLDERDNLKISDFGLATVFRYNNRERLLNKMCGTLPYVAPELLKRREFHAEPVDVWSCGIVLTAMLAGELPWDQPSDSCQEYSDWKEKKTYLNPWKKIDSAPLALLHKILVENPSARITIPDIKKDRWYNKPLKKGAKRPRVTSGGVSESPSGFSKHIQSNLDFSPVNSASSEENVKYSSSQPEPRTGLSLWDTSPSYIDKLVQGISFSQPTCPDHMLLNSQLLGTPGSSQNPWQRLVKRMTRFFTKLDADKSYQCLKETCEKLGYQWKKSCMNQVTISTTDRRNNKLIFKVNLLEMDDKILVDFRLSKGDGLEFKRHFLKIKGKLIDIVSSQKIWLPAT

In the case of `O=C(O)CCC(=O)Nc1cccc(-c2n[nH]c3ccc(NS(=O)(=O)c4ccccc4)cc23)c1`, the GI50 in experiment [1] is > 20000 nM. Also, it took 28 nM to reach half-maximal inhibition in [2] (IC50).
`O=C(O)/C=C\C(=O)Nc1cccc(-c2n[nH]c3ccc(NS(=O)(=O)c4ccc(-c5ccccc5)cc4)cc23)c1`: in experiment [1], the GI50 was > 20000 nM.
In the case of `CC(C)OC(=O)CCC(=O)Nc1cccc(-c2n[nH]c3ccc(NS(=O)(=O)c4ccccc4)cc23)c1`, in [1], the concentration for 50% growth inhibition (GI50) is > 20000 nM. In experiment [2], half-maximal inhibition (IC50) was put at 220 nM.
Turning to `O=C(O)/C=C/C(=O)Nc1cccc(-c2n[nH]c3ccc(NS(=O)(=O)c4ccccc4)cc23)c1`, in experiment [1], the GI50 is > 20000 nM.
In the case of `O=C(O)/C=C\C(=O)Nc1cccc(-c2n[nH]c3ccc(NS(=O)(=O)c4ccc(F)cc4)cc23)c1`, in experiment [1], the GI50 was > 20000 nM. In addition, the IC50 in experiment [2] is 30 nM.
`O=C(O)[C@]1(Cc2cccc(Nc3nccs3)n2)CC[C@@H](Oc2cccc(Cl)c2F)CC1` [MK-5108]: the half-maximal inhibitory concentration (IC50) in experiment [3] is 12 nM.
Take `COC(=O)CCC(=O)Nc1cccc(-c2n[nH]c3ccc(NS(=O)(=O)c4ccccc4)cc23)c1`: in experiment [1], it took 12000 nM to inhibit growth by half (GI50). The compound further yielded a half-inhibitory concentration (IC50) in [2] of 48 nM.
The matching figures for `COc1ccc(S(=O)(=O)Nc2ccc3[nH]nc(-c4cccc(NC(=O)/C=C\C(=O)O)c4)c3c2)cc1`: > 20000 nM and 31 nM.
On to `CC(C)(C)c1ccc(S(=O)(=O)Nc2ccc3[nH]nc(-c4cccc(NC(=O)/C=C\C(=O)O)c4)c3c2)cc1`, for which, in [1], the GI50 is > 20000 nM.
Take `CC#CC(=O)Nc1cccc(-c2n[nH]c3ccc(NS(=O)(=O)c4ccccc4)cc23)c1`: the GI50 in experiment [1] was found to be 3600 nM. Moreover, in experiment [2], the 50% inhibitory concentration (IC50) is > 1000 nM.
Consider `O=C(O)/C=C\C(=O)Nc1cccc(-c2n[nH]c3ccc(NS(=O)(=O)c4ccccc4)cc23)c1`, for which the inhibition is 21% in [4]; 93% in experiment [5]; 58% in [6]; 8% in experiment [7]; 17% in [8]; 1% in experiment [9]. For the same compound, the inhibition is 48% in experiment [10]; 24% in experiment [11]; 89% in [12]; -4% in experiment [13]; 20% in [14]; 85% in experiment [15]. Besides, the inhibition is 94% in experiment [16]; 1% in experiment [17]; 48% in experiment [18]; 16% in experiment [19]; 39% in experiment [20]; -2% in experiment [21]. Further, the inhibition in experiment [22] stood at 31%; in [23] it was 64%; in [24], 8%; in [25] it was 10%; in experiment [26], 61%. Moreover, the GI50 in experiment [1] is > 20000 nM. Also, the half-maximal inhibitory concentration (IC50) in experiment [2] turned out to be 15 nM.
As to `NC(=O)CCC(=O)Nc1cccc(-c2n[nH]c3ccc(NS(=O)(=O)c4ccccc4)cc23)c1`, the 50% growth inhibitory concentration (GI50) in experiment [1] was > 20000 nM. The IC50 in experiment [2] worked out at 49 nM.
For the compound `CCOC(=O)CCC(=O)Nc1cccc(-c2n[nH]c3ccc(NS(=O)(=O)c4ccccc4)cc23)c1`, the concentration for 50% growth inhibition (GI50) in experiment [1] turned out to be 1900 nM. Moreover, the half-maximal inhibitory concentration (IC50) in experiment [2] stood at 64 nM.
The matching figures for `Cc1ccc(S(=O)(=O)Nc2ccc3[nH]nc(-c4cccc(NC(=O)/C=C\C(=O)O)c4)c3c2)cc1`: > 20000 nM and 32 nM.
For the compound `O=C(O)/C=C\C(=O)Nc1cccc(-c2n[nH]c3ccc(NS(=O)(=O)c4ccc([N+](=O)[O-])cc4)cc23)c1`, in [1], the concentration for 50% growth inhibition (GI50) was > 20000 nM. The midpoint of inhibition in [2], the IC50, lay at 26 nM.

The term GI50 denotes the concentration that inhibits growth by half. A low value points to greater sensitivity of the cells. By IC50 is commonly meant the midpoint of a concentration-inhibition curve. The term inhibition denotes the drop in the measured response relative to a control, in per cent.
